# Assays:
# [1] = tested on: platelets with HIT antibody
# Method: The second technique employed was flow cytometric platelet analysis. In this functional test, platelets in whole blood are activated by heparin or heparin analog in the presence of heparin antibody in serum from a patient clinically diagnosed with HIT. Using flow cytometry, platelet activation was determined in two manners: by the formation of platelet microparticles and by the increase of platelet surface bound P-selectin.
# Specifically, whole blood drawn by careful double-syringe technique was anticoagulated with hirudin (10 μg/ml final concentration). An aliquot of whole blood (50 μL) was immediately fixed in 1 ml 1% paraformaldehyde (gating control). […] Samples were analyzed on an EPICS XL flow cytometer (Beckman-Couter; Hialeah, Fla.) for forward angle (FALS) and side angle light scatter, and for FITC and PE (phycoerythrin) fluorescence. […]
# Using the gating control sample, amorphous regions were drawn to include single platelets and platelet microparticles. Platelet microparticles were distinguished from platelets on the basis of their characteristic flow cytometric profile of cell size (FALS) and FITC fluorescence (CD61 platelet marker). […] Data was reported as a percentage of the total number of CD61-positive events analyzed.
# [2] = tested on: pigs, 75 min LAD balloon occlusion and 3 h reperfusion; experiment: Porcine ischemia/reperfusion model: global ejection fraction by contrast ventriculography; type: in vivo, pig; conditions: for Global Ejection Fraction, Baseline: before ischemia and dosing; for Global Ejection Fraction, 180 Minutes after End of Ischemia: control 34 ± 3
# Source text: Arterial access was achieved via bilateral femoral artery cut-downs for the insertion of 8F sheaths. Central venous and carotid access was achieved via a neck incision to expose the external jugular vein and common carotid artery. Animals were then anticoagulated with 50 U/kg of unfractionated heparin to maintain an activated clotting time (ACT) between 250-350 seconds, prior to ischemia. A 7-8 Fr pigtail catheter was placed in the left ventricular cavity to measure pressure and for injection of […] microspheres. Angiography was performed to define coronary anatomy and measure the diameter of the left anterior descending coronary artery (LAD) at the point of intended balloon occlusion. A coronary sinus catheter was placed via the external jugular vein under fluoroscopic guidance for coronary venous sampling. Baseline cardiodynamic and hemodynamic data were measured using a solid state transducer-tipped catheter in the left ventricle (Millar Instruments, Houston, Tex.) to measure left ventricular pressure, and a fluid-filled transducer connected to the side port of the femoral artery sheath to measure peripheral arterial pressure. Approximately 3-4 million neutron-activated microspheres (BioPhysics Assay Laboratory, Inc, Worcester, Ma) (15 μm) were delivered through a pig-tail catheter into the left ventricle over a 30 second period, to quantify regional myocardial blood flow (RMBF). Simultaneously with injection, a reference sample was withdrawn at a rate of 7 cc/min from the femoral artery sheath, for 90 seconds during and after injection of microspheres. A contrast ventriculogram (60° right anterior oblique) was obtained to assess global and regional myocardial function at baseline. An angioplasty balloon catheter sized to exceed ambient diameter by 1 mm (range chosen was 3.0-4.0 mm) was then inserted into the proximal LAD, after the first diagonal branch. […] In addition, 2% lidocaine (4-8 ml total) was administered during ischemia, as needed, to attenuate ventricular arrhythmias. Balloon occlusion time was 75 minutes with coronary occlusion confirmed by contrast angiography, ST segment changes on electrocardiography, and quantitatively confirmed by microspheres delivered at the end of ischemia, as described above. Episodes of ventricular fibrillation were immediately treated with electrical cardioversion delivered at 200 Joules. During the ischemic period, animals were randomly assigned to receive either saline vehicle or 2-O, 3-O desulfated heparin (ODSH) at a dose of 5 mg/kg, 15 mg/kg, or 45 mg/kg as an IV bolus at 2 minutes prior to deflation of the balloon (pharmacological postconditioning), and repeated at 90 minutes of reperfusion. Following deflation of the angioplasty balloon, animals underwent 3 hours of further reperfusion and observation. Microspheres were again injected to measure myocardial blood flow at 15 minutes of reperfusion and again at 180 minutes of reperfusion. At the end of 180 minutes of reperfusion, animals were euthanized with an IV injection of pentobarbital sodium (100 mg/kg) and the heart was excised to quantify the area at risk, infarct size, regional myocardial blood flow, and myeloperoxidase activity. Hemodynamic data (left ventricular and arterial blood pressure) and derived variables were recorded continuously using 10× and Datanalyst software (EMKA Technologies, Falls Church, Va.).
# Left ventricular contrast angiography was performed at baseline, ischemia, and 180 minutes after relief of ischemia. Contrast (Hypaque, approximately 50 mL) was rapidly injected via a pigtail catheter using a power injector. Left ventricular ejection fraction (LVEF) and regional function of the antero-lateral wall was calculated using the area-length method, which outlined the ventricle at the end of systole and diastole. LVEF and regional function were analyzed independently by 2 blinded observers.
# [3] = tested on: pigs, 75 min LAD balloon occlusion and 3 h reperfusion; experiment: Closed chest porcine model of cardiac ischemia/reperfusion: infarct size (NEC/AAR); type: in vivo, pig; conditions: repeated at 90 min reperfusion
# Source text: To study the utility of 2-O, 3-O desulfated heparin (ODSH) in reducing ischemic tissue injury from injurious Ca^++ overload, a closed chest porcine model of cardiac ischemia was used. The study was designed to determine if previous findings indicating the protective effect of ODSH in reducing myocardial infarction reperfusion injury in open chest dogs were reproducible in an animal model of ischemia/reperfusion injury more relevant to humans. […] Yorkshire-cross pigs (Palmetto Research Swine, Reevesville, S.C.) of either sex, weighing 25-35 kg, were used for the experiment was employed. Animals were premedicated with an intramuscular injection of ketamine (30 mg/kg), acepromazine (1.1 mg/kg), and atropine (0.05 mg/kg). Pigs were induced with an IV injection of thiopental (10 mg/kg) and maintained with continuous inhalation of isoflurane (1-1.5%). Aspirin (81 mg) was administered by IV prior to the experiment.
# Arterial access was achieved via bilateral femoral artery cut-downs for the insertion of 8F sheaths. Central venous and carotid access was achieved via a neck incision to expose the external jugular vein and common carotid artery. […] Baseline cardiodynamic and hemodynamic data were measured using a solid state transducer-tipped catheter in the left ventricle (Millar Instruments, Houston, Tex.) to measure left ventricular pressure, and a fluid-filled transducer connected to the side port of the femoral artery sheath to measure peripheral arterial pressure. Approximately 3-4 million neutron-activated microspheres (BioPhysics Assay Laboratory, Inc, Worcester, Ma) (15 μm) were delivered through a pig-tail catheter into the left ventricle over a 30 second period, to quantify regional myocardial blood flow (RMBF). […] Balloon occlusion time was 75 minutes with coronary occlusion confirmed by contrast angiography, ST segment changes on electrocardiography, and quantitatively confirmed by microspheres delivered at the end of ischemia, as described above. […]
substance,measurement,setting,value
"2-O, 3-O desulfated heparin [ODSH]",platelet microparticle formation versus saline control,[1],no level of platelet microparticle formation above that of the saline control incubations
same,"Global Ejection Fraction, Ischemia","[2]; ODS 15 mg/kg (second line, r8)",23 ± 3%
same,"Global Ejection Fraction, Baseline","[2]; ODS 15 mg/kg (second line, r8)",57 ± 4%
same,"Global Ejection Fraction, 180 Minutes after End of Ischemia","[2]; ODS 15 mg/kg (second line, r8)",42 ± 4%
same,"Global Ejection Fraction, Ischemia",[2]; ODS 45 mg/kg,30 ± 3%
same,"Global Ejection Fraction, Baseline",[2]; ODS 45 mg/kg,60 ± 2%
same,"Global Ejection Fraction, 180 Minutes after End of Ischemia",[2]; ODS 45 mg/kg,38 ± 6%
same,ejection fraction at 3 hours after the end of ischemia versus control,"[2]; ODS-treated animals, all doses",tended to be higher
same,"Global Ejection Fraction, Baseline","[2]; line printed ODS 15 mg/kg (first of two, r7), control 52 ± 2",61 ± 2%
same,"Global Ejection Fraction, Ischemia","[2]; line printed ODS 15 mg/kg (first of two, r7), control 25 ± 2",30 ± 3%
same,"Global Ejection Fraction, 180 Minutes after End of Ischemia","[2]; line printed ODS 15 mg/kg (first of two, r7)",42 ± 5%
same,infarct size (NEC/AAR) compared to control,[3]; ODSH 5 mg/kg IV bolus 2 min before balloon deflation,No significant reduction in infarct size
same,infarct size (NEC/AAR) relative to control,[3]; ODSH 15 mg/kg IV bolus 2 min before balloon deflation,significant infarct size reduction
same,infarct size (NEC/AAR) relative to control,[3]; ODSH 45 mg/kg IV bolus 2 min before balloon deflation,significant infarct size reduction
